Measured values: patent US9181309B1, “Peptide regulation of maize defense responses” (The United States of America, as represented by the …, priority 2011, dated 2015)

How the values were obtained:
[1] = system: defense-related genes in excised maize leaves; test: Excised leaf bioassay, semi-quantitative RT-PCR of defense marker genes; assay type: in vivo, Zea mays
Procedure: Over a 16.5 hour time-course, excised maize leaves were supplied with either a solution of ZmPEP3 peptide or with a water control. Based on the average volume of ZmPEP3 solution taken up by the maize leaves, each leaf was exposed to around 1.8 nMols of peptide per gram of leaf material over the time course study. Zero hour treatments indicate leaves that were immediately harvested at the beginning of the study; the other time points refer to hours elapsed after leaves were excised and placed into solution. As a control to observe herbivory-induced expression of these genes, a timecourse of exposure to herbivory by Spodoptera frugiperda (fall armyworm, FAW) was performed for comparison. As described in the Material and Methods, when using the semi-quantitative RT-PCR analysis technique, observed band intensity is indicative of initial transcript abundance in a sample, thus bands of greater intensity represent sample with enriched transcript abundance.
Maize tissues that had been harvested and frozen in liquid nitrogen were ground to a fine powder using a porcelain mortar and pestle. Approximately 100 mg of frozen powdered plant material was transferred to a 2 mL microcentrifuge tubes to which 1 mL of Trizol reagent (Invitrogen, Carlsbad Calif.) was added. RNA isolation was performed as per the Trizol instructions, supplemented by an acid:phenol:chloroform partitioning step to minimize contaminating DNA. RNA was solublized in 50 μL diethylpyrocarbonate (DEPC)-treated water. RNA yield was quantified by measuring the A260, and the samples were stored at −20° C.
RNA was reverse transcribed using all components from the RETROscript kit (Ambion, Austin Tex.). The 20 μL reverse transcription reactions were assembled as per kit instructions The reverse transcription reaction was allowed to proceed for one hour at 44° C., followed by a ten minute incubation at 92° C.
Semi-quantitative RT-PCR reactions were assembled as follows: 1.2 μL of the cDNA generated in the reverse transcription reactions was used as template for 25 μL PCR reactions. Each reaction contained Platinum 10×PCR buffer (Invitrogen, Carlsbad Calif.) and the final concentration of Mg^2+ and dNTPs were 1.5 mM and 200 μM, respectively. Platinum Taq polymerase (Invitrogen, Carlsbad Calif.) was added at 0.5 units per reaction, while primers were used at 0.4 μM each. All primers were designed to for an annealing temperature of 56° C., to amplify a product of 250 to 350 base pairs and to span introns when possible. The ZmActin1 gene transcript (GenBank# J01238) has been described in the literature as an effective housekeeping control transcript for the study of maize defense gene expression (Erb et al., 2009), and was therefore used to permit comparisons of relative transcript abundance from sample to sample. Genes to be analyzed for responsiveness to ZmPep3 were all shown in previous work to be associated with either pathogen or herbivore resistance (Erb et al., Plant J 59: 292, 2009; Doehlemann et al., Plant J. 56:181, 2008; Köliner et al., Plant Cell 20: 482, 2008; Chen et al., Phytopathology 94:938, 2004; Chen et al., Phytopathology 97:1094, 2007; Schnee et al., Plant Physiol 130: 2049, 2002; Frey et al., Proc Natl Acad Sci USA. 97:14801, 2000).

Cotesia marginiventris = test: Olfactometer assay of parasitoid wasp attraction to pretreated leaves; assay type: in vivo
Source text: The generalist parasitoid Cotesia marginiventris attacks many Lepidopteran species including S. exigua and is attracted to herbivory-induced maize volatiles (Turlings et al., Science 250:1251, 1990). Precisely which components are attractive has been difficult to determine, and the wasps respond strongly to unidentified minor components when subjected to gas chromatograph-coupled electroantennography (Gouinguene et al., J Chem Ecol. 31:1023, 2005). To determine whether the ZmPep3-induced blend was attractive to naïve C. marginiventris, olfactometer assays were conducted with leaves pretreated with ZmPep3, Gln-18:3 or water for 16 h. To ensure that any preference was due to elicited plant responses and not to an inherent attraction or repellence to any treatment substance, leaves treated at time of assay were used as controls. […] Thus, ZmPep3-regulated responses are sufficient to generate effective indirect defenses against Lepidopteran herbivores.

[2] = system: defense metabolites in maize leaves; test: Accumulation of defense metabolites within treated leaves (internal pools); assay type: in vivo, Zea mays
Source text: Induced terpene production is vital to anti-herbivore defenses in many plant species (Unsicker et al., Curr Opin Plant Biol. 12:479, 2009; Tholl, Curr Opin Plant Biol. 9:297, 2006; Keeling and Bohlmann, New Phytol 170:657, 2006). […] Expression of genes encoding the relevant biosynthetic enzymes, Anthranilic Acid Methyl Transferase 1 (AAMT1) and Indole-Glycerol Phosphate Lyase (IGL) were induced by both peptide and the insect elicitor ([…]., Plant Physiol 153:1795, 2010; Frey et al., Proc Natl Acad Sci USA. 97:14801, 2000). In addition to proteinaceous defenses, maize benzoxazinoids contribute to direct defenses against both herbivores and pathogens ([…] Agric Food Chem 57:1677, 2009). […] Oikawa et al., Phytochemistry. 56:669, 2001; Huffaker et al., Plant Physiol. 155:1325, 2011). […] It is hypothesized that simultaneous activation of both IGL and BX1 by ZmPep3 results in increased flux through the benzoxazinoid pathway to produce HDMBOA-Glc.

[3] = later time points, vs water-supplied leaves

ZmPEP3: 23 amino acid maize plant elicitor peptide TRTPPWPPCPPEEGSGGNGGSHN (SEQ ID NO: 3) (Zea mays)
number of defense-related genes identified as ZmPEP3-responsive ([1]; excised leaf assays): twenty | time at which AOS transcript increases in abundance ([1]; excised leaves, around 1.8 nMols of peptide per gram of leaf): 2 h | endochitinase A transcript levels ([1]; excised leaves, around 1.8 nMols of peptide per gram of leaf, early time points, vs water): increased transcript levels at all early time points | IGL expression ([1]; later time points): strongly induced | AOS transcript levels [1, 3]: markedly increased | TPS23 transcript abundance [1, 3]: increased greatly | peroxidase transcript accumulation ([1]; later timepoints, not detectable in water-supplied leaves): marked induction of transcript accumulation | wasps attracted to ZmPep3-pretreated vs water-pretreated leaves (Cotesia marginiventris; 16 h pretreatment): more wasps were attracted | wasp preference for leaves pretreated 16 h vs leaves treated at time of assay (Cotesia marginiventris; naive C. marginiventris): strongly preferred | anthranilate and indole in leaves ([2]; following treatment): increased | HDMBOA-Glc accumulation ([2]; in vivo): increased accumulation | anthranilate and indole accumulation, peptide vs Gln-18:3 ([2]; in vivo): significantly greater accumulation | accumulation of terpenes in internal pools, ZmPep3 vs Gln-18:3 ([2]; measured prior to volatile collection): significantly greater accumulation of terpenes
